Source: the CheMixHub ionic liquid set

Assay: xn = mol fraction of the nth substance listed
Conditions: 101 kPa; for electrical conductivity: x1 = 1

CCCCCCCC[n+]1ccc2ccccc2c1.O=S(=O)([N-]S(=O)(=O)C(F)(F)F)C(F)(F)F + OCCc1ccccc1
Conditions | viscosity [mPa·s]
298.15 K, x2 = 0.5766 | 60.64
298.15 K, x2 = 0.8956 | 18.61
308.15 K, x2 = 0.695 | 25
318.15 K, x2 = 0.1985 | 71.5
318.15 K, x2 = 0.3748 | 45.28
318.15 K, x2 = 0.5766 | 23.86
328.15 K, x2 = 0.0851 | 58.53
328.15 K, x2 = 0.3748 | 30.17
328.15 K, x2 = 0.5766 | 16.54
328.15 K, x2 = 0.695 | 11.76
338.15 K, x2 = 0.0851 | 39.05
338.15 K, x2 = 0.3748 | 21.2
338.15 K, x2 = 0.695 | 8.67

CC[n+]1ccn(C)c1.O=S(=O)([O-])C(F)(F)F + [I-].[Li+]
Conditions | electrical conductivity [S/m]
288.15 K | 0.605
298.15 K | 0.859
333.15 K | 2.24

CCCCCCCC[n+]1ccc2ccccc2c1.O=S(=O)([N-]S(=O)(=O)C(F)(F)F)C(F)(F)F + c1ccccc1
Conditions | viscosity [mPa·s]
298.15 K, x2 = 0 | 369
298.15 K, x2 = 0.4679 | 67
298.15 K, x2 = 0.673 | 10.93
298.15 K, x2 = 0.7443 | 5.93
308.15 K, x2 = 0.4679 | 40.99
318.15 K, x2 = 0 | 108.7
318.15 K, x2 = 0.332 | 47.7
318.15 K, x2 = 0.5663 | 16.93
328.15 K, x2 = 0.1505 | 50.4
328.15 K, x2 = 0.332 | 31.8
328.15 K, x2 = 0.673 | 4.75
338.15 K, x2 = 0.673 | 3.83
338.15 K, x2 = 0.8143 | 1.48
348.15 K, x2 = 0.332 | 16.29
348.15 K, x2 = 0.654 | 4.92
348.15 K, x2 = 0.8961 | 0.49

CCCCCCCC[n+]1ccc2ccccc2c1.O=S(=O)([N-]S(=O)(=O)C(F)(F)F)C(F)(F)F + c1ccncc1
Conditions | viscosity [mPa·s]
308.15 K, x2 = 0.0945 | 155
308.15 K, x2 = 0.8199 | 5.32
328.15 K, x2 = 0 | 67.9
328.15 K, x2 = 0.7274 | 4.82
338.15 K, x2 = 0.0945 | 38.2
338.15 K, x2 = 0.5383 | 10.76
338.15 K, x2 = 0.8199 | 3.09
348.15 K, x2 = 0.0945 | 26.97

CCCCCCCC[n+]1ccc2ccccc2c1.O=S(=O)([N-]S(=O)(=O)C(F)(F)F)C(F)(F)F + c1ccsc1
Conditions | viscosity [mPa·s]
298.15 K, x2 = 0.542 | 42.73
298.15 K, x2 = 0.821 | 7.64
308.15 K, x2 = 0.0964 | 158.7
308.15 K, x2 = 0.542 | 27.8
308.15 K, x2 = 0.6385 | 16.12
308.15 K, x2 = 0.821 | 6.02
308.15 K, x2 = 0.9065 | 2.78
318.15 K, x2 = 0 | 108.7
318.15 K, x2 = 0.0964 | 92.2
318.15 K, x2 = 0.2739 | 54.7
318.15 K, x2 = 0.9065 | 2.36
338.15 K, x2 = 0.3572 | 20.4
348.15 K, x2 = 0.4456 | 11.37
